{"source": "patent US3971814A", "about": "“Benzo(b)thiophene derivatives” (priority 1972, dated 1976)", "key": {"in vivo [1]": {"experiment": "in vivo", "conditions": "rat, po", "method": "experimental animals are male mice (NMRI) weighing 16 to 24 g and male rats (SIV 50) weighing 120 to 180 g.\nPrior to the beginning of the test, all animals are kept fasting for 16 to 18 hours, however water is offered ad libitum. 6 mice and 4 or 6 rats belonged to each dosage group and the doses between each group are increased logarithmically. The volume of liquid administered during testing amounted to 2 ml/100 g body weight. The substances tested are suspended in 1 percent Tragacanth mucilage and administered intragastrically via a gastric tube."}, "[2]": {"tested_on": "Yeast Edema of the Rat Paw", "experiment": "Yeast edema and determination of pain threshold in the rat paw", "format": "in vivo", "conditions": "3 h; for Pain Threshold (change vs initial value) / Volume (increase in paw volume, blank control = 100%): i.g.", "method": "test animals are male rats (SIV 50) weighing 100 to 180 g. […] 10 animals belonged to each dosage group.\nThe volume of the paw is determined according to the method described by Enders and Heidbrink, the pain threshold according to that described by Randall and Selitto (Arch. Int. Pharmacodyn CXI: 409, 1957).\nFollowing initial measurements, […] of a 5% suspension of dried yeast is injected subplantarly into the right paw and the test substances are administered immediately. The blank control group is given Tragacanth mucilage only. After 3 hours the pain threshold and the volume of the paw are determined again.\nThe mean value of the increase in paw volume of the animals of the blank control after 3 hours is rated 100%, and the mean value of the increase in paw volume of the animals of the substance groups expressed as a percentage thereof. Pain threshold after 3 hours reflects the increase or decrease in percent, compared to the initial value.\nIn order to be able to calculate the ED50 according to the method by Lichtfield and Wilcoxon (J.P.E.T. 96:99, 1949), those animals in a dose group are considered protected when the paw swelling was at least 40% less than that of the blank control."}, "[3]": {"tested_on": "Carrageenin Edema of the Rat Paw", "experiment": "Carrageenin edema of the rat paw", "format": "in vivo", "method": "test animals used are the same as stated under Example B and up to the initial measurement, the procedure corresponded to that described under this example.\nAfter an initial measurement, the test substances are administered and after 60 minutes a 1% Carrageenin suspension is injected subplantarly (0.1 ml/paw). After 60 and 180 minutes the paw volume is again determined. Here, too, the blank control group was treated with the carrier alone.\nThe increase in the volume of the paw after 60 minutes is considered as the first phase of the biphase edema and that after 180 minutes, as compared to the 60-minute-value, as the second phase. Moreover, the total increase of the paw edema within 180 minutes, as compared to the initial value, is also determined.\nDetermination of the influence exerted by the substances upon the development of the paw edema and calculation of the ED50 are done as under Example B."}, "[4]": {"tested_on": "Kaolin Edema of the Rat Paw", "experiment": "Kaolin edema of the rat paw", "format": "in vivo", "conditions": "2.5 mg/kg", "method": "test animals used are the same as stated under Example B and up to the beginning of the test, the procedure corresponded to that described under this example.\nAfter an initial measurement, a sterile 25% kaolin suspension was injected (0.05 ml/paw) subplantarly. The test substances are administered immediately, and after 60, 120, and 180 minutes the paw volume is again determined.\nEvaluation of the tests was performed as stated under Example C, and the results so obtained presented below: […]"}, "Granulation Tissue": {"tested_on": "Granulation Tissue", "experiment": "Cotton-pellet test (granulation tissue)", "format": "in vivo", "conditions": "rat; for granulation tissue % dry weight: ig., 2×1,5 mg/kg daily, section K", "method": "test animals are male rats (SIV 50) weighing 110 to 200 g. All test animals are kept fasting for 16 to 18 hours prior to the implantation of the pellets; after that food and water were available ad libitum. Each dose level of the chemical tested was administered to 12 animals. The substances were suspended in 1% Tragacanth mucilage and administered intragastrically by means of a stomach tube. The substances to be investigated and the control suspensions are administered once on the operating day following operation, and twice a day on the following 6 days (at intervals of 6 to 8 hours). The type of application and volume of liquid corresponded to that under B.\nUnder light ether anesthesia 4 sterile cotton pellets were implanted under the skin on the back of the animal. The weight of one pellet was 50 mg ± 0.5 mg. After 7 days treatment, the animals were sacrificed, the pellets removed with the granulation tissue, weighed and then dried in the incubator at +80°C to constant weight. The average dry weight of the granulation tissue of the control group was rated 100%, and deviations of the mean weights of the group treated with the test substance determined as a percentage thereof.\nThe weight of the animals is measured daily throughout the tests, and the percental increase determined. At the end of some tests, moreover, the suprarenal glands are removed and their weight determined."}, "Granuloma Pouch": {"tested_on": "Granuloma Pouch", "experiment": "Granuloma pouch test", "format": "in vivo", "conditions": "rat, i.g., 2 × 1.5 mg/kg daily", "method": "Under light ether anesthesia 25 ml of air are injected under the shaved skin of the back. 0.5 ml of croton oil/animal (0.05%) are injected into the pouch formed by the air, and evenly distributed over the back by turning the animal.\nOn the third day croton oil (3%, 0.5 ml/animal) is again injected into this pouch.\nThe average dry weights of the granuloma pouches and the quantities of secretion of the groups subjected to treatment are then compared with those of the control group and the percental deviations calculated.\nAt the end of some tests the suprarenal glands are removed and the weight of these organs is also determined.\nThe weight of the animals is measured daily and the changes determined as a percentage."}, "[5]": {"tested_on": "Arthritis Induced by the Freund Adjuvant", "experiment": "Adjuvant arthritis", "format": "in vivo", "conditions": "rat, i.g., 2 × 2.5 mg/kg", "method": "test animals used are the same as described under Example E; food and water is given ad libitum.\nOn the first day of the test a 0.8% suspension of Mycobacterium butyrium in paraffin (0.05 or 0.1 ml/paw) is injected subplantarly into the left hind paw of the animals. […] From the 19th to the 22nd day the animals showing a reaction are treated intragastrically with the test substances. The right paw having been marked above the ankle-joint, the volume is determined daily from the 19th to the 22nd or 23rd day, according to the process described under Example B.\nThe volume of liquid, as well as of the carrier administered, corresponded to that described in the above tests."}, "male mice (NMRI)": {"tested_on": "male mice (NMRI)", "experiment": "Hot-plate test (analgesia)", "format": "in vivo", "conditions": "mouse, i.g.", "method": "male mice (NMRI) weighing 18 to 28 g are used as test animals. The animals are placed on a copper plate constantly kept at 55°C, and the time is measured until they lick their forepaws.\nFollowing 3 initial measurements, the test substances are administered intragastrically. Afterwards the measurements are repeated over a period of 2 hours at intervals of 30 minutes. Each dose is administered to 10 animals selected from groups of 15 animals following the initial measurements.\nThe test substances are administered as a suspension in 1% Tragacanth mucilage, the volume of liquid amounting to 2 ml/100 g of body weight.\nFor the purpose of statistical evaluation according to Litchfield and Wilcoxon, those animals in which the reaction time has been extended by at least 100% are considered protected."}, "[6]": {"experiment": "Summary: calculated ED50 and therapeutic ratio", "format": "in vivo, rat", "method": "From the ED50 and LD50 (A) the following therapeutic ratios for this test are calculated: […]"}, "in vivo [7]": {"experiment": "in vivo", "conditions": "mouse, po"}}}
{"compound": "COc1ccc2c(c1)c(CC(=O)O)c(C)n2C(=O)c1ccc(Cl)cc1", "note": "[Indomethacin, 1-(p-Chlorobenzoyl)-5-methoxy-2-methylindole-3-acetic acid]", "values": [{"measurement": "LD50", "setting": "in vivo [1]", "result": "20 to 30", "unit": "mg/kg"}, {"measurement": "Pain Threshold (change vs initial value)", "setting": "[2]; 5.0 mg/kg", "result": -22, "unit": "%"}, {"measurement": "Volume (increase in paw volume, blank control = 100%)", "setting": "[2]; 5.0 mg/kg", "result": 131, "unit": "%"}, {"measurement": "Pain Threshold (change vs initial value)", "setting": "[2]; 20.0 mg/kg", "result": "+11%"}, {"measurement": "Volume (increase in paw volume, blank control = 100%)", "setting": "[2]; 20.0 mg/kg", "result": 108, "unit": "%"}, {"measurement": "change in vivo at 5 mg/kg", "setting": "[2]; po, ig., 5 mg/kg, section K", "result": -22, "unit": "%"}, {"measurement": "response vs control in vivo at 5 mg/kg", "setting": "[2]; po, ig., 5 mg/kg, section K, read-out: volume (paw, control = 100%)", "result": 100, "unit": "%"}, {"measurement": "1st Phase (paw edema)", "setting": "[3]; 1.0 mg/kg", "result": 65, "unit": "%"}, {"measurement": "2nd Phase (paw edema)", "setting": "[3]; 1.0 mg/kg", "result": 80, "unit": "%"}, {"measurement": "3 Hrs. (total paw edema)", "setting": "[3]; 1.0 mg/kg", "result": 73, "unit": "%"}, {"measurement": "1st Phase (paw edema)", "setting": "[3]; 5.0 mg/kg", "result": 80, "unit": "%"}, {"measurement": "2nd Phase (paw edema)", "setting": "[3]; 5.0 mg/kg", "result": 73, "unit": "%"}, {"measurement": "3 Hrs. (total paw edema)", "setting": "[3]; 5.0 mg/kg", "result": 73, "unit": "%"}, {"measurement": "60 Minutes (paw edema)", "setting": "[4]", "result": 79, "unit": "%"}, {"measurement": "120 Minutes (paw edema)", "setting": "[4]", "result": 81, "unit": "%"}, {"measurement": "180 Minutes (paw edema)", "setting": "[4]", "result": 81, "unit": "%"}, {"measurement": "Granulation Tissue % (Dry Weight)", "setting": "Granulation Tissue; i.g., 2 × 1.5 mg/kg daily", "result": 80, "unit": "%"}, {"measurement": "Increase in Body Weight", "setting": "Granulation Tissue; i.g., 2 × 1.5 mg/kg daily", "result": "not influenced"}, {"measurement": "granulation tissue % dry weight", "setting": "Granulation Tissue; NaCl control group", "result": 91, "unit": "%"}, {"measurement": "granulation tissue % dry weight", "setting": "Granulation Tissue; tragacanth control group", "result": 65, "unit": "%"}, {"measurement": "Exitus (footnote)", "setting": "Granuloma Pouch", "result": "Exitus of an animal"}, {"measurement": "Granuloma Pouch Dry Weight", "setting": "Granuloma Pouch", "result": 98, "unit": "%"}, {"measurement": "Increase in Body Weight", "setting": "Granuloma Pouch", "result": "not influenced"}, {"measurement": "Secretion", "setting": "Granuloma Pouch", "result": 134, "unit": "%"}, {"measurement": "Swelling", "setting": "[5]", "result": 80, "unit": "%"}, {"measurement": "Notes (analgesic activity)", "setting": "male mice (NMRI)", "result": "slightly effective"}, {"measurement": "protection", "setting": "male mice (NMRI); starting with 20 mg/kg", "result": "approx. 50%"}, {"measurement": "ED50", "setting": "[6]; Rattus norvegicus", "result": 0.9, "unit": "mg/kg"}, {"measurement": "therapeutic ratio", "setting": "[6]; from ED50 and LD50 (A)", "result": 33.3}, {"measurement": "LD50", "setting": "in vivo [7]", "result": "< 10", "unit": "mg/kg"}]}
